From US12629390B2, “Stabilized amorphous calcium carbonate for treatment of neurological, muscular and infertility diseases or conditions” (AMORPHICAL LTD., priority 2016, dated 2026)

Key:
mice embryos = experiment: in vitro embryo development in Quinn's Advantage cleavage media; format: cell-based
Method: CBA male mice were bred with BL C57 female mice. The mice were kept on a 12 hours photoperiod schedule with unlimited water and food supply. About 6 to 8 weeks after receiving offspring, each female mouse was injected IP with 5IU of pregnant mare serum gonadotropin (PMSG).
After 48 hours each female mouse was injected IP with 5IU human chorionic gonadotropin (hCG). Male mice proven to be fertile were then put together with the superovulated females. The next morning the female mice were examined for the presence of copulatory plugs. Females that had copulatory plugs were euthanized after 24 hours (approximately 36 hours post-coitus) and embryos at 2 cell stage were retrieved from the oviducts as following: the oviducts were dissected in Quinn's Advantage cleavage media (SAGE, Origio, Denmark) and the embryos were transferred to 20 μL drops with Quinn's Advantage cleavage media (SAGE, Origio, Denmark) overlaid with mineral oil and cultured at 37.0° C. under 5% CO2 and atmospheric oxygen. The collected embryos continued to grow, i.e. in-vitro culture (IVC), until blastocyst/hatching stage. To test the effect of amorphous calcium carbonate, the Quinn's Advantage cleavage media (“cleavage media” hereinafter) was supplemented with different additives, i.e. amorphous calcium carbonate stabilized by polyphosphate (ACC-PP), crystalline calcium carbonate (CCC), polyphosphate (PP), phosphoserine (PS) or sodium carbonate ([…]). All supplements were added as a freshly prepared suspension; the preparation of the ACC supplements were performed under aseptic conditions. Untreated cleavage media (without addition of any additive) was used as a control (identified as Cont Q). The embryos were evaluated every day by microscope observation for a detection of the following stages: 2 cells, compactions stage, blastocysts formation and hatching stage. The fraction (in percent) of the embryos reached each stage was calculated (the number of 2 cells embryos was set as 100%).

[1] = tested on: spinal cord-dorsal root ganglia (SC-DRG) slices; experiment: nerve fiber sprouting from SC-DRG co-cultures; format: cell-based, rat; conditions: after 4 days of cultivation, portion of explants (out of 6)
Method: Neural and Vascular Reconstruction Gel ([…] Labs proprietary) is composed of two main components: high molecular hyaluronic acid (HA, 3×10^6 Da, BTG, Israel) and laminin (Sigma). […] The gel has the texture of a viscous liquid, it adheres easily and successfully the embedded cells or explants to the plastic or glass substratum, and enabled nerve fiber outgrowth in a 3D pattern. All the experiments were carried out and authorized by the local ethics committee recognized by the Israeli authorities for animal experimentation. Stationary organotypic cultures of dorsal root ganglia (DRG) and spinal cord (SC) as well as cultures of dissociated brain cells were prepared from rat fetuses (15 days of gestation, Lewis inbred, Harlan, Israel). Immediately after dissection, the isolated tissues were cut with a […] tissue chopper into small slices (of 400 μm thickness). In these studies, two tissue culture strategies were used. […] In the second method, the tissue slices were further dissociated with a trypsin-EDTA solution for 30 min, and washed with a culture medium. Subsequently, the dissociated cells were added to a suspension of chitosan powder or gastrolith powder (micro carriers, MCs) and incubated in suspension at 37° C. for 4 days. […] Calcium source were as following: ACC-Etidronic Acid (ACC-ET) (fresh suspension); ACC-Phosphoserine (ACC-PS) (fresh suspension); Gastrolith (dissolved with 0.1 M HCl and then neutralized with NaOH 1M); gastrolith powder; […] The cultures were monitored by daily phase contrast microscopic observations starting from 24 hours after setting the cultures onward. Suspensions of fresh ACC preparations consisted of particles forming a stable suspension. The gastrolith is a natural ACC isolated from crabs, and can be purchased only as a dry powder. In this form, its other characteristic components (such as calcium ions and proteins) are not available to the cells. In order to increase their bioavailability, the gastrolith powder was dissolved in 0.1 M HCl (which mimics the acidity which exists in the stomach) and then neutralized with 1M NaOH. […] The specimens were then incubated with rabbit anti-neurofilament antibodies (NF, Novus Biologicals, 1:500) to visualize the neurite outgrowth. […] Finally, the samples were rinsed again with wash buffer, and mounted with mounting medium (Immco Diagnostic, USA).

[2] = tested on: healthy skeletal muscle cultures; experiment: myotube formation and contraction in healthy skeletal muscle cultures; format: cell-based, rat; conditions: added at 1 mM (final Ca2+ 2 mM)
Method: Stationary skeletal muscle cultures were prepared from healthy 1 day new born rat (Sprague Dawley, Harlan, Israel). The muscle tissue was dissected from posterior legs and was thoroughly minced. Digestion was performed with Trypsin-EDTA while gentle trituration. After 30 min the supernatant, containing dissociated cells, was collected and a fresh Trypsin-EDTA was added. This procedure was repeated two more times. Then, all supernatants were pooled, centrifuged, and the cell pellet was re-suspended in Proliferation Medium. Cells were seeded in a Gelatin coated 12 wells culture plates, 1×10^5 cells/well containing 1 mL of Proliferation Medium. Two days later, the medium was changed to Fusion Medium, which was then changed twice a week. The cultures were monitored by daily phase contrast microscopic observations from 24 hours after setting the cultures and onward.
Stock solution of 1% porcine gelatin in water, was sterilized by autoclave. Once cooled, 500 μl of the solution were added to each well of the 12-wells culture plat. After incubation for 20 min at room temperature, the excess solution was removed, and the cells were seeded.
For the proliferation stage, cells were cultured in: DMEM/F12 (containing 1 mM Ca^2+) +10% FBS, 25 μg/mL Gentamycin, and 2 mM L-Glutamine.
For the fusion stage the Proliferation Medium was changed with Fusion Medium, which was prepared as following: DMEM/F12 (containing 1 mM Ca2+), 2% horse serum (HS), 2 mM L-Glutamine, 25 μg/mL Gentamycin, and 4 units/100 mL Insulin (all purchased from Biological-Industries, Israel).
Control cultures were grown without further added calcium, or cultures enriched with free (soluble) stabilizer. The experiment was blinded by marking the various calcium preparations with arbitrary numerals only.
The components were added in one of the following ways: (i) aqueous suspensions of dry material; (ii) aqueous suspension of fresh material (before drying), or (iii) dissolved with HCl (to mimic the acidity which exists in the stomach. After dissolving was accomplished, the formed solutions were neutralized with 1M NaOH).

mdx mice = experiment: serum creatinine kinase (CK) levels in mdx mice given calcium supplements orally; format: in vivo; conditions: 12 weeks
From the text: Experimental mice were administrated orally (by feeding or drinking) with control or test items. The control or test items were repeatedly administered daily until the study termination (after 12 weeks).
Animals were administrated with ACC by food or by drinking. Animals were administrated with CCC by food. Control was administrated by feeding. The control or test items were repeatedly administered daily until study termination.
At study termination blood sample was drawn from all animals under light anesthesia with Ketmaine/Xylazine, directly from the retro orbital sinus.
200 μl blood were collected into a yellow-cup tube with clotting activator gel. The tubes were kept at room temperature for at least 30 minutes for clotting and centrifuged at room temperature for 10 minutes at 4000 RPM. The serum samples are stored at 2-4° C. until delivered to CK analysis at A.M.L labs.

sperm = conditions: addition to calcium-free mediums; Bhoumik et al. 2014; cited from earlier work
[3] = Example 13, mice 3-7 pooled embryos, 1.6 mM in cleavage media
[4] = Example 14, pooled embryos, 1.6 mM in cleavage media
[5] = Example 16, pooled embryos, 1.7 mM in cleavage media
[6] = Example 15, pooled embryos, 3.3 mM in cleavage media
[7] = Example 17, mouse 1 sibling embryos, 1.7 mM in cleavage media
[8] = Example 17, mice 3-6 pooled embryos, 1.7 mM in cleavage media
[9] = Example 17, mouse 2 sibling embryos, 1.7 mM in cleavage media

With polyphosphate [PP] the “8 cell/d2: number of embryos” value (mice embryos; [3]) was 9, the “Blast/d3: number of embryos” value (mice embryos; [3]) was 20 and the “Blast/d3: portion of the initial number of embryos” value (“Blast/d3: portion” below) (mice embryos; [3]) was 54.1%. The “Hatch/d4: number of embryos” value (mice embryos; [3]) was 17, the “Hatch/d4: portion of the initial number of embryos” value (“Hatch/d4: portion” for short) (mice embryos; [3]) was 45.9% and the “comp/d2: number of embryos” value (mice embryos; [3]) was 20. For the same compound, the “8 cell/d2: number of embryos” value (mice embryos; [4]) was 6, the “Blast/d3: number of embryos” value (mice embryos; [4]) was 34 and the “Blast/d3: portion” value (mice embryos; [4]) was 94.44%. For the same compound, the “Hatch/d4: number of embryos” value (mice embryos; [4]) was 16, the “Hatch/d4: portion” value (mice embryos; [4]) was 44.44% and the “comp/d2: number of embryos” value (mice embryos; [4]) was 30.

With `CC(O)(P(=O)(O)O)P(=O)(O)O` [ET, Etidronic Acid] the “Cultures with axonal regeneration (%)” value ([1]; stabilizer alone at 0.05%) was 33.3%.

With `N[C@@H](COP(=O)(O)O)C(=O)O` [PS, phosphoserine] the “Cultures with axonal regeneration (%)” value ([1]; stabilizer alone at 0.05%) was 0%, the “8 cell/d2: number of embryos” value (mice embryos; [5]) was 5 and the “Blast/d3: number of embryos” value (mice embryos; [5]) was 12. For the same compound, the “Blast/d3: portion” value (mice embryos; [5]) was 92.3%, the “Hatch/d4: number of embryos” value (mice embryos; [5]) was 10 and the “Hatch/d4: portion” value (mice embryos; [5]) was 76.9%. The “comp/d2: number of embryos” value (mice embryos; [5]) was 8.

In the case of `O=C([O-])[O-].[Ca+2]` [CCC, crystalline calcium carbonate], the “Cultures with axonal regeneration (%)” value ([1]; calcium preparation at Ca2+ 2 mM) is reported as 50%, the “muscle fibers after 7 days” value [2] is reported as “fewer, thinner and shorter muscle fibers” and the “early formation of many myotubes, time of cultivation” value ([2]; dry powder suspended in water) is reported as “later”. The “elevation of CK compared to mdx group on normal diet only (2M)” value (mdx mice; by food, diet with 1% elemental calcium (4M: synthetic ACC 5% PS; 3M: synthetic CCC)) was “not statistically significant”, the “creatinine kinase (CK) in serum” value (mdx mice; group 3M: by food, diet with 1% elemental calcium) was 21,676±14,508 IU/ml and the “8 cell/d2: number of embryos” value (mice embryos; [6]) was 3. The “Blast/d3: number of embryos” value (mice embryos; [6]) was 17, the “Blast/d3: portion” value (mice embryos; [6]) was 100% and the “Hatch/d4: number of embryos” value (mice embryos; [6]) was 14. The “Hatch/d4: portion” value (mice embryos; [6]) was 82.35%, the “comp/d2: number of embryos” value (mice embryos; [6]) was 14 and the “8 cell/d2: number of embryos” value (mice embryos; [7]) was 14. The “Blast/d3: number of embryos” value (mice embryos; [7]) was 12, the “Blast/d4: number of embryos” value (mice embryos; [7]) was 5 and the “Hatch/d4: number of embryos” value (mice embryos; [7]) was 15. For the same compound, the “Hatch/d4: portion” value (mice embryos; [7]) was 62.5%, the “comp/d2: number of embryos” value (mice embryos; [7]) was 6 and the “degenerative: number of embryos” value (mice embryos; [7]) was 1. The “early Blast/d3: number of embryos” value (mice embryos; [7]) was 8.

In the case of `[Ca+2]` [Ca^2+ ions], the “increase of forward sperm motility” value (sperm) is given as “up to 20%”.

For `O=C([O-])[O-].[Na+].[Na+]` [NaCO3, sodium carbonate], the “embryonic development compared to control or to the addition of ACC-PP” value (mice embryos; Example 17, 1.7 mM in cleavage media) was “very poor embryonic development”, the “8 cell/d2: number of embryos” value (mice embryos; [8]) was 2 and the “Blast/d3: number of embryos” value (mice embryos; [8]) was 0. The “Blast/d4: number of embryos” value (mice embryos; [8]) was 0, the “Hatch/d4: number of embryos” value (mice embryos; [8]) was 0 (0) and the “Hatch/d4: portion” value (mice embryos; [8]) was 0 (0) %. The “comp/d2: number of embryos” value (mice embryos; [8]) was 7, the “degenerative: number of embryos” value (mice embryos; [8]) was 1 and the “early Blast/d3: number of embryos” value (mice embryos; [8]) was 0. The “8 cell/d2: number of embryos” value (mice embryos; [9]) was 6, the “Blast/d3: number of embryos” value (mice embryos; [9]) was 2 and the “Blast/d4: number of embryos” value (mice embryos; [9]) was 0. The “Hatch/d4: number of embryos” value (mice embryos; [9]) was 2, the “Hatch/d4: portion” value (mice embryos; [9]) was 12.5% and the “comp/d2: number of embryos” value (mice embryos; [9]) was 8. For the same compound, the “degenerative: number of embryos” value (mice embryos; [9]) was 2 and the “early Blast/d3: number of embryos” value (mice embryos; [9]) was 14.
